Test results reported in PubChem BioAssay (NCI).
Values joined by “and” are separate entries in the source; they are usually repeats but may differ in a detail not shown here. Identical values can stand only once.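 Values below derive from 48-hour exposures of cells grown in 96-well plates, with endpoints linearly interpolated between the two concentrations bracketing the appropriate inhibition level. GI50 is the concentration that inhibits growth by half. At the TGI there is no net growth.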

Legend:
Assay in all cases: NCI-60 cell line screen, 48 h
[1] = tested on: KM12 colon
[2] = tested on: UO-31 renal
[3] = tested on: LOX IMVI melanoma
[4] = tested on: HOP-62 NSCLC
[5] = tested on: ACHN renal
[6] = tested on: M14 melanoma
[7] = tested on: SK-MEL-5 melanoma
[8] = tested on: MALME-3M melanoma
[9] = tested on: OVCAR-3 ovarian
[10] = tested on: OVCAR-8 ovarian

Compound | TGI [1] [µM] | TGI [2] [µM] | TGI [3] [µM] | TGI [4] [µM] | TGI [5] | TGI [6] [µM] | TGI [7] [µM] | TGI [8] [µM] | TGI [9] [µM] | TGI [10] [µM] | GI50 [1] [µM] | GI50 [2] [µM] | GI50 [3] [µM] | GI50 [4] [µM] | GI50 [5] [µM] | GI50 [6] [µM] | GI50 [7] [µM] | GI50 [8] [µM] | GI50 [9] [µM] | GI50 [10] [µM]
CC(=O)Nc1ccc(OCC(O)CO)cc1 (centres undefined) | > 100 | > 100 | 73.1 | > 100 | > 100 µM | > 100 | > 100 | > 100 | > 100 | > 100 |  |  |  |  |  |  |  |  |  | 
NC(N)=N/N=C/c1ccc(Br)cc1 | 15.5 | 19.7 | 20.8 | 24.2 | 20.1 µM | 5.67 | 9.28 | 22.7 | 9.23 | 21.2 | 3.42 | 5.72 | 6.45 | 9.8 | 7.2 | 2.21 | 2.36 | 10.1 | 3.41 | 5.3
N#CC1([N+](=O)[O-])C=C1c1ccccc1 (centres undefined) | > 100 | > 100 | > 100 | > 100 | > 100 µM | > 100 | > 100 | > 100 | > 100 | > 100 |  |  |  |  |  |  |  |  |  | 
N#CC(CC(=O)O)=C(c1ccccc1)c1ccccc1 | > 100 | > 100 | > 100 | > 100 | > 100 µM | > 100 | > 100 | > 100 | > 100 | > 100 |  |  |  |  |  |  |  |  |  | 
O=S1(=O)C=C(c2ccccc2)C(c2ccccc2)=C1 | 3.2 | 2.6 | 3.05 | 4.42 | 2.88 µM | 3.01 | 2.9 | 4.72 | 2.9 | 3.19 | 1.63 | 1.15 | 1.69 | 1.87 | 1.55 | 1.58 | 1.57 | 1.93 | 1.56 | 1.56
CC(=O)OC1(C#N)CC2OC1C1NC21 (centres undefined) |  | > 100 | > 100 | > 100 | > 100 µM | > 100 | > 100 | > 100 |  | > 100 |  |  |  |  |  |  |  |  |  | 
CCCCCCCCCCCCCCCC(N)c1ccccc1 (centres undefined) | 3.29 | 2.97 | 3 | 2.62 | 3.34 µM | 3.15 | 3.23 | 3.28 | 3.08 | 4.89 | 1.77 | 1.49 | 1.52 | 1.23 | 1.79 | 1.7 | 1.67 | 1.6 | 1.64 | 2.22
Nc1cc(N)c2nc(-c3ccccc3)c(Oc3ccc(Cl)c(Cl)c3)nc2c1 | 39.8 | 60.7 | 34 | 37.9 |  | 70.3 | 28.7 | 37.4 | 26.9 | 88.4 | 6.38 | 13.3 | 16.1 | 16.9 |  | 14.1 | 9.77 | 15.8 | 10.8 | 27.9
CCCCCCC(=O)CC(=O)C(=O)Nc1ccccc1C | > 100 | > 100 | > 59 | > 100 | > 100 µM | > 100 | > 100 | > 100 | > 100 | > 100 |  |  |  |  |  |  |  |  |  | 
NS(=O)(=O)c1ccc(N=Nc2c(=O)[nH]c3ccc4[nH]cccc4c23)cc1 | 4.32 | > 25 | > 25 | > 25 | > 25 µM | 5.64 | 4.69 | 3.05 | 1.98 | > 25 | 0.792 | 1.68 | 0.304 | 0.653 | 0.694 | 0.82 | 0.256 | 1.05 | 0.375 | 0.342
O=C1OC(=O)C2C1C1C(c3ccccc3)=C(c3ccccc3)C2(O)C2C(=O)OC(=O)C12 (centres undefined) | > 100 | > 100 |  | > 100 | > 100 µM | > 100 |  | > 100 | > 100 | > 100 |  |  |  |  |  |  |  |  |  | 
CCOc1cc[n+](C(=C=[N-])C#N)cc1 | > 100 | > 100 | > 100 | > 100 |  | > 100 | > 100 | > 100 | > 100 | > 100 |  |  |  |  |  |  |  |  |  | 
CC(=O)CC(=O)ON(C)C(=O)Cc1ccccc1 | > 100 | > 100 | > 100 | > 100 | > 100 µM | > 100 | > 100 | > 100 | > 100 | > 100 |  |  |  |  |  |  |  |  |  | 
O=S1Cc2ccccc2CSS1 (centres undefined) | 31.6 | 32.6 | 17.3 |  | 30.9 µM | 27 | 26.3 | 26.2 | 31.1 | 27.6 |  |  |  |  |  |  |  |  |  | 
CCCC(CCC)C(=O)O | > 20000 | > 20000 | > 20000 | > 20000 | > 100 µM and 17400 µM | > 20000 | 9570 | > 20000 | > 20000 | > 20000 | > 100 | > 100 | > 100 | > 20000 | > 100 | 19900 |  | > 100 | > 100 | > 100
CC1CCC2[C@@H](C)COC3O[C@]4(C)CCC1C32OO4 (some centres undefined) | > 100 | > 100 | > 100 | > 100 | > 100 µM | > 100 | > 100 | > 100 | > 100 | > 100 |  |  |  |  |  |  |  |  |  | 
COc1cc(OC)c2c(c1Cl)O[C@]1(C2=O)C(OCc2ccccc2)=CC(=O)C[C@H]1C | > 100 | 61.2 |  | 62.2 | > 100 µM | 40.5 | 11.8 | 55.8 | 11.4 | 29.4 | 0.596 | 2.51 |  | 1.36 | 0.785 | 0.612 | 1.15 | 12 | 0.986 | 1.02
